Calls of active or inactive are those of the source. No cut-off for these calls is given here.
Tests used:
MCF7 [1] = assay: Growth inhibition of human MCF7 cells at 5 uM incubated for 48 hrs by CCK-8 method relative to control; assay type: functional; conditions: read-out: GI
[2] = molecular target: Mitogen-activated protein kinase 1 (Homo sapiens, UniProt P28482); assay: Inhibition of ERK2 (unknown origin) incubated for 60 mins by luminescence based ADP-Glo kinase assay
A549 [3] = assay: Growth inhibition of human A549 cells at 5 uM incubated for 48 hrs by CCK-8 method relative to control; assay type: functional; conditions: read-out: GI
5637 [4] = assay: Growth inhibition of human 5637 cells at 5 uM incubated for 48 hrs by CCK-8 method relative to control; assay type: functional; conditions: read-out: GI
HepG2 [5] = assay: Growth inhibition of human HepG2 cells at 5 uM incubated for 48 hrs by CCK-8 method relative to control; assay type: functional; conditions: read-out: GI
MCF7 [6] = assay: Antiproliferative activity against human MCF7 cells incubated for 48 hrs by CCK-8 method; assay type: functional, cell-based; conditions: MCF7, 48 h
HepG2 [7] = assay: Antiproliferative activity against human HepG2 cells incubated for 48 hrs by CCK-8 method; assay type: functional, cell-based; conditions: HepG2, 48 h
5637 [8] = assay: Antiproliferative activity against human 5637 cells incubated for 48 hrs by CCK-8 method; assay type: functional, cell-based; conditions: Homo sapiens, 5637, 48 h
4T1 [9] = assay: Antiproliferative activity against mouse 4T1 cells incubated for 48 hrs by CCK-8 method; assay type: functional, cell-based; conditions: 4T1, 48 h
HCC1937 = assay: Antiproliferative activity against human HCC1937 cells incubated for 48 hrs by CCK-8 method; assay type: functional, cell-based; conditions: HCC1937, 48 h
MCF-10A = assay: Antiproliferative activity against human MCF-10A cells incubated for 48 hrs by CCK-8 method; assay type: functional, cell-based
MDA-MB-468 = assay: Antiproliferative activity against human MDA-MB-468 cells incubated for 48 hrs by CCK-8 method; assay type: functional, cell-based; conditions: MDA-MB-468, 48 h
[10] = molecular target: Mitogen-activated protein kinase 3 (Homo sapiens, UniProt P27361); assay: Inhibition of ERK1 (unknown origin) incubated for 60 mins by luminescence based ADP-Glo kinase assay
MCF7 [11] = assay: Activation of ERK1/2 pathway in human MCF7 cells assessed as increase in EGF-induced c-Myc phosphorylation at 5 uM incubated for 30 mins by Western blot analysis; assay type: cell-based
MCF7 [12] = assay: Activation of ERK1/2 pathway in human MCF7 cells assessed as increase in EGF-induced ERK phosphorylation at 5 uM incubated for 30 mins by Western blot analysis; assay type: cell-based; conditions: filed as activator
MCF7 [13] = assay: Induction of autophagy in human MCF7 cells assessed as increase in Beclin-1 level at 5 uM by Western blot analysis; assay type: functional, cell-based
MCF7 [14] = assay: Induction of autophagy in human MCF7 cells assessed as increase in LC3B-II level at 5 uM by Western blot analysis; assay type: functional, cell-based
A549 [15] = assay: Antiproliferative activity against human A549 cells incubated for 48 hrs by CCK-8 method; assay type: functional, cell-based; conditions: A549, 48 h
4T1 [16] = assay: Antitumor activity against mouse 4T1 cells implanted in female BALB/c mouse model assessed as tumor growth inhibition at 50 mg/kg, ip qd measured for 18 days relative to control; assay type: functional; conditions: 4T1, 432 h, time 18 day, read-out: TGI
MCF7 [17] = assay: Activation of ERK1/2 pathway in human MCF7 cells assessed as increase in EGF-induced p90RSK phosphorylation at 5 uM incubated for 30 mins by Western blot analysis; assay type: cell-based
MCF7 [18] = assay: Induction of autophagy in human MCF7 cells assessed as increase in ATG5 level at 5 uM by Western blot analysis; assay type: functional, cell-based

Chain of Mitogen-activated protein kinase 3 (P27361 whole entry): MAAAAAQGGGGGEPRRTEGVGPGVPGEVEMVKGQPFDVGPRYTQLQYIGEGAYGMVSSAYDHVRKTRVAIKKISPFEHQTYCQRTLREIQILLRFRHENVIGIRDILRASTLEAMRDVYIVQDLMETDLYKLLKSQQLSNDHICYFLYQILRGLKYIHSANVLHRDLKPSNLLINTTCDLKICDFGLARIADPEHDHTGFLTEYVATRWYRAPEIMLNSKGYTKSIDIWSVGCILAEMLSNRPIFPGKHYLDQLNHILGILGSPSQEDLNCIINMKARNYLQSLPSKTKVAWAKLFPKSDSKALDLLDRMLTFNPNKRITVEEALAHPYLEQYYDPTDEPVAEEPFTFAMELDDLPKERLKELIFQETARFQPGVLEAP
Chain of Mitogen-activated protein kinase 1 (P28482 whole entry): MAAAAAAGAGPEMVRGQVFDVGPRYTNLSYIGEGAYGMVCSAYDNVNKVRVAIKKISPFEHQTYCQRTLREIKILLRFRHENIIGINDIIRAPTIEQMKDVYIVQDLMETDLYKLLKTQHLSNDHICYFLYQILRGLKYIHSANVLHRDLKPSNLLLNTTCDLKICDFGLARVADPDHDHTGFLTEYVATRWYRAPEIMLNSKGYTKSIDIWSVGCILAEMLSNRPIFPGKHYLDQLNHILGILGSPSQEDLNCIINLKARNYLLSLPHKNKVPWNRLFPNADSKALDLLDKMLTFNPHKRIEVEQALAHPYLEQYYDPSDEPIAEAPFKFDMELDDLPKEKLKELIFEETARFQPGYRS

SMILES	inhibition of growth at 5 µM (MCF7 [1]) [%]	IC50 [2] [µM]	inhibition of growth at 5 µM (A549 [3]) [%]	inhibition of growth at 5 µM 5637 [4] [%]	inhibition of growth at 5 µM (HepG2 [5]) [%]	IC50 (MCF7 [6]) [µM]	also measured
CC(C)[C@@H](Cn1cc[n+](Cc2ccccc2)c1)NC(=O)Nc1cc(C(F)(F)F)cc(C(F)(F)F)c1	55.7	0.606	7.18	31.5	24.5		
Cc1n(C[C@H](Cc2ccccc2)NC(=O)Nc2cc(C(F)(F)F)cc(C(F)(F)F)c2)cc[n+]1Cc1ccccc1	40.5	0.376	2.07	12.8	20.8		
CC(C)[C@@H](Cn1c[n+](Cc2ccccc2)c2ccccc21)NC(=O)Nc1cc(C(F)(F)F)cc(C(F)(F)F)c1	91.9	0.285	30.2	56.5	39.5	3.37	
O=c1[nH]cc(F)c(=O)[nH]1 [FLUOROURACIL]						6	IC50 (HepG2 [7]): > 10 µM; IC50 5637 [8]: 7.4 µM; IC50 (4T1 [9]): > 10 µM; IC50 (HCC1937): 5.67 µM; IC50 (MCF-10A): > 10 µM; IC50 (MDA-MB-468): > 10 µM
CC[C@@H](C)[C@@H](Cn1cc(C(F)(F)F)[n+](Cc2ccccc2)c1)NC(=O)Nc1cc(C(F)(F)F)cc(C(F)(F)F)c1	100	0.507	23.5	96.8	13.9	3.48	IC50 5637 [8]: 3.47 µM
CC[C@@H](C)[C@@H](Cn1cc[n+](Cc2ccccc2)c1C)NC(=O)Nc1cc(C(F)(F)F)cc(C(F)(F)F)c1	64	0.406	8.26	17.6	71.3		
CC(=O)N[C@@H](Cc1ccccc1)Cn1c[n+](Cc2cccc3ccccc23)c2ccccc21		> 10					IC50 [10]: > 10 µM
CC(=O)N[C@@H](Cc1ccccc1)Cn1cnc2ccccc21		> 10					IC50 [10]: > 10 µM
O=C(Nc1cc(C(F)(F)F)cc(C(F)(F)F)c1)N[C@@H](Cc1ccccc1)Cn1cc[n+](Cc2ccccc2)c1	82	0.272	9.26	61.9	38.1		
Cc1n(C[C@@H](NC(=O)Nc2cc(C(F)(F)F)cc(C(F)(F)F)c2)C(C)C)cc[n+]1Cc1ccccc1	7.92	0.535	7.87	21.1	-4.95		
CC(C)Nc1cc(-c2c[nH]c(C(=O)N[C@H](CO)c3cccc(Cl)c3)c2)c(Cl)cn1 [ULIXERTINIB]						> 10	IC50 (HepG2 [7]): 6.12 µM; Activity (MCF7 [11]): inactive; Activity (MCF7 [12]): Active; IC50 5637 [8]: > 10 µM; Activity (MCF7 [13]): Active; IC50 (4T1 [9]): > 10 µM; IC50 (HCC1937): > 10 µM; IC50 (MCF-10A): > 10 µM; Activity (MCF7 [14]): Active; IC50 (A549 [15]): 5.39 µM; IC50 (MDA-MB-468): > 10 µM; inhibition in vivo at 50 mg/kg (4T1 [16]): 26.9%; Activity (MCF7 [17]): inactive; Activity (MCF7 [18]): Active
O=C(N[C@@H](Cc1ccccc1)Cn1c[n+](Cc2cccc3ccccc23)c2ccccc21)c1ccccc1		> 10					IC50 [10]: > 10 µM
O=C(N[C@@H](Cc1ccccc1)Cn1cnc2ccccc21)c1ccccc1		> 10					IC50 [10]: > 10 µM
O=C(Nc1cc(C(F)(F)F)cc(C(F)(F)F)c1)N[C@@H](Cc1ccccc1)Cn1cc(C(F)(F)F)[n+](Cc2ccccc2)c1	19.4	0.297	13.5	26.4	31.2		
CC[C@@H](C)[C@@H](Cn1cc[n+](Cc2ccccc2)c1)NC(=O)Nc1cc(C(F)(F)F)cc(C(F)(F)F)c1	86.9	0.483	8.36	85.6	47.2		
O=C(Nc1cc(C(F)(F)F)cc(C(F)(F)F)c1)N[C@@H](Cc1ccccc1)Cn1c[n+](Cc2ccccc2)c2ccccc21	99.5	0.206	50.6	56.8	35.3	1.55	
CC[C@@H](C)[C@@H](Cn1c[n+](Cc2ccccc2)c2ccccc21)NC(=O)Nc1cc(C(F)(F)F)cc(C(F)(F)F)c1	100	0.283	97.8	99.5	100	2.68	IC50 (HepG2 [7]): 2.33 µM; IC50 5637 [8]: 2.94 µM; IC50 (A549 [15]): 3.92 µM
